According to PubChem BioAssay AID652130 (The Scripps Research Institute Molecular Screening Center, 2013):
Calls of active or inactive are those of the source. How the calls were made is not given here.

The compounds below were run against Perilipin-5 (Homo sapiens) + 1-acylglycerol-3-phosphate O-acyltransferase ABHD5 (Homo sapiens) (UniProt Q00G26+Q8WTS1) (assay: PubChem AID 652130). Conditions: ABHD5/PLIN5 interaction, luminescence, HEK293T-produced proteins.
Perilipin-5 (Homo sapiens) + 1-acylglycerol-3-phosphate O-acyltransferase ABHD5 (Homo sapiens), sequence (Q00G26 whole entry, looked up): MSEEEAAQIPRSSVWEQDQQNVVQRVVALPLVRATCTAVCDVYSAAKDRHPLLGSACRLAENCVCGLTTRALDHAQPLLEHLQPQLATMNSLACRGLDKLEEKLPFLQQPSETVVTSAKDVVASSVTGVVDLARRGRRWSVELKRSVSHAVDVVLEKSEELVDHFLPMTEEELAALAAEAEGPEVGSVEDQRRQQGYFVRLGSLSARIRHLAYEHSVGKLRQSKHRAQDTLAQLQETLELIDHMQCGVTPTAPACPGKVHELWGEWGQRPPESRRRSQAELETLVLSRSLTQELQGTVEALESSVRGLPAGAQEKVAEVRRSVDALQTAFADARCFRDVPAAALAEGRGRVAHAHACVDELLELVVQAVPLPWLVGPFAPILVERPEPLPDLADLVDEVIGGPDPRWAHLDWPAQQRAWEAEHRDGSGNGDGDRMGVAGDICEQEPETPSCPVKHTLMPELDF
Perilipin-5 (Homo sapiens) + 1-acylglycerol-3-phosphate O-acyltransferase ABHD5 (Homo sapiens), sequence (Q8WTS1 whole entry, looked up): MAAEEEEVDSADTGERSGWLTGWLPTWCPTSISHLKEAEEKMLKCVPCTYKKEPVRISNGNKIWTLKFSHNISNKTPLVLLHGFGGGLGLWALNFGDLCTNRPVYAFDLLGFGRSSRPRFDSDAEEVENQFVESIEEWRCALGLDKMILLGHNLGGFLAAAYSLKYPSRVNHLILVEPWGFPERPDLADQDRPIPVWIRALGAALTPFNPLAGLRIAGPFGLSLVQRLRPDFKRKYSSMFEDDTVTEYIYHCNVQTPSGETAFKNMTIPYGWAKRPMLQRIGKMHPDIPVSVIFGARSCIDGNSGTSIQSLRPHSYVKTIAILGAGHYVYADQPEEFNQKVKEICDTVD
In the case of Cc1ccc2cc(CC(=O)N3CCN(S(=O)(=O)c4ccc5c(c4)OCCO5)CC3)oc2c1, the IC50 is reported as “inactive”. In the case of CN(C)CCCN(C(=O)C1CCCCC1)c1nc2cc(Br)ccc2s1, the IC50 is reported as > 39.8 µM (inactive). CCc1ccc2c(CC(=O)N3CCN(S(=O)(=O)c4ccc5c(c4)OCCO5)CC3)coc2c1 showed an IC50 of 3.46 µM. For O=C(CCc1nc2ccccc2s1)N1CCN(S(=O)(=O)c2ccc3c(c2)OCCO3)CC1, the IC50 was “inactive”. O=C(CCn1cnc2ccccc21)N1CCN(S(=O)(=O)c2ccc3c(c2)OCCO3)CC1 was tested, and the IC50 was > 39.8 µM (inactive). In the case of Cc1ccc(CS(=O)(=O)c2ncc(Cl)c(C(=O)Nc3cccc(C(F)(F)F)c3)n2)cc1, the IC50 is reported as 2.46 µM. CCCNC(=O)Nc1ccc2c(c1)N(CC)C(=O)c1ccccc1S2 was tested, and the IC50 was “inactive”. For CCS(=O)(=O)c1ncc(Cl)c(C(=O)Nc2ccc(C)cc2)n1, the IC50 was 4.23 µM. For CCCC(=O)N(CCCN1CCOCC1)c1nc2ccc(Cl)cc2s1, the IC50 was > 39.8 µM (inactive). CN1C(=O)c2ccccc2Sc2ccc(NC(=O)NCCc3cccs3)cc21 gave an IC50 of 5.6 µM. Work on CN(C(=O)c1nc(S(C)(=O)=O)ncc1Cl)c1ccccc1 yielded an IC50 of 3.65 µM. Work on NS(=O)(=O)c1ccc(NC(=O)c2nc(S(=O)(=O)Cc3ccccc3)ncc2Cl)cc1 yielded an IC50 of 4.68 µM. With COc1ccc(CCNC(=O)c2nc(S(=O)(=O)Cc3ccc(F)cc3)ncc2Cl)cc1OC the IC50 was 2.82 µM. In the case of CN(C)CCCN(C(=O)Cc1ccc(F)cc1)c1nc2ccc(Cl)cc2s1, the IC50 is reported as > 39.8 µM (inactive). In the case of Cc1ccc(CS(=O)(=O)c2ncc(Cl)c(C(=O)Nc3cccc4ccccc34)n2)cc1, the IC50 is reported as 2.7 µM. CN1C(=O)c2ccccc2Sc2ccc(NC(=O)NCCc3ccccc3)cc21 showed an IC50 of 4.37 µM. In the case of CN1C(=O)c2ccccc2Oc2ccc(NC(=O)c3cc4ccccc4[nH]3)cc21, the IC50 is reported as > 39.8 µM (inactive). Cc1ccc2c(CC(=O)N3CCN(S(=O)(=O)c4ccc5c(c4)OCCCO5)CC3)coc2c1C gave an IC50 of 4.85 µM. For CN(C)CCCN(C(=O)CCc1ccccc1)c1nc2ccc(Cl)cc2s1, the IC50 was > 39.8 µM (inactive). In the case of CN1C(=O)c2ccccc2Oc2ccc(NC(=O)c3cccs3)cc21, the IC50 is reported as > 39.8 µM (inactive). For CCCS(=O)(=O)c1ccc(Cl)c(C(=O)Nc2ccc(C(=O)OCC)cc2)c1, the IC50 was 6.17 µM. Cc1ccc(CS(=O)(=O)c2ncc(Cl)c(C(=O)N3CCN(C)CC3)n2)cc1 was tested, and the IC50 was 5.9 µM. CCCCCCNC(=O)Nc1ccc2c(c1)Sc1ccccc1C(=O)N2C was tested, and the IC50 was > 39.8 µM (inactive). With CC(NC(=O)CN1CCN(S(=O)(=O)c2ccc3c(c2)OCCCO3)CC1)c1cc2ccccc2o1 (configuration not stated) the IC50 was > 39.8 µM (inactive). For CN(C)CCCN(C(=O)c1cc2ccccc2oc1=O)c1nc2ccc(Cl)cc2s1, the IC50 was > 39.8 µM (inactive). CCCS(=O)(=O)c1ncc(Cl)c(C(=O)Nc2ccc(C(=O)OC)cc2)n1 showed an IC50 of 6.37 µM. Compound O=C(c1nc(S(=O)(=O)Cc2ccccc2)ncc1Cl)N(Cc1ccccc1)Cc1ccco1 has an IC50 of 1.76 µM. With COc1ccc(CC(=O)N2CCCN(S(=O)(=O)c3ccc(C)cc3)CC2)cc1OC the IC50 was > 39.8 µM (inactive). CCCCCNC(=O)Nc1ccc2c(c1)Sc1ccccc1C(=O)N2C was tested, and the IC50 was > 39.8 µM (inactive). In the case of COc1ccc(OCC(=O)Nc2ccc3c(c2)N(C(C)C)C(=O)c2ccccc2O3)cc1, the IC50 is reported as > 39.8 µM (inactive). In the case of CCCCCCCNC(=O)Nc1ccc2c(c1)Sc1ccccc1C(=O)N2C, the IC50 is reported as “inactive”. Work on CCS(=O)(=O)c1ncc(Cl)c(C(=O)Nc2ccc(S(N)(=O)=O)cc2)n1 yielded an IC50 of 8.4 µM. With CCCC(=O)Nc1ccc2c(c1)C(=O)N(C)c1cc(C)ccc1O2 the IC50 was > 39.8 µM (inactive). CC(C)N1C(=O)c2ccccc2Oc2ccc(NC(=O)c3ccccc3)cc21 was tested, and the IC50 was > 39.8 µM (inactive). CS(=O)(=O)c1ncc(Cl)c(C(=O)Nc2ccc(C(F)(F)F)cc2)n1 was tested, and the IC50 was 1.62 µM. In the case of O=C(Cc1cccc(F)c1)N1CCN(S(=O)(=O)c2ccc3c(c2)OCCO3)CC1, the IC50 is reported as > 39.8 µM (inactive). CCCC(=O)Nc1ccc2c(c1)C(=O)N(C)c1ccccc1O2 was tested, and the IC50 was > 39.8 µM (inactive). Work on Cc1ccc(CS(=O)(=O)c2ncc(Cl)c(C(=O)NCc3ccc4c(c3)OCO4)n2)cc1 yielded an IC50 of 3.36 µM. O=C(CCc1c[nH]c2ccccc12)N1CCN(S(=O)(=O)c2ccc3c(c2)OCCO3)CC1 was tested, and the IC50 was > 39.8 µM (inactive). For O=C(C1COc2ccccc2O1)N1CCN(S(=O)(=O)c2ccc3c(c2)OCCO3)CC1 (configuration not stated), the IC50 was > 39.8 µM (inactive). For CN(C)CCCN(C(=O)C1CCCCC1)c1nc2cc(Cl)ccc2s1, the IC50 was > 39.8 µM (inactive). Cc1ccc(NC(=O)c2nc(S(C)(=O)=O)ncc2Cl)cc1 showed an IC50 of 3.83 µM. For O=C(Cc1ccc2c(c1)CCCC2)N1CCN(S(=O)(=O)c2ccc3c(c2)OCCO3)CC1, the IC50 was “inactive”. With COc1ccc(CC(=O)N2CCN(S(=O)(=O)c3ccc4c(c3)OCCCO4)CC2)cc1 the IC50 was > 39.8 µM (inactive). Cc1ccc(CS(=O)(=O)c2ncc(Cl)c(C(=O)Nc3nnc(C(C)C)s3)n2)cc1 was tested, and the IC50 was > 39.8 µM (inactive). O=C(Nc1ccc2ccccc2c1)c1nc(S(=O)(=O)Cc2ccccc2)ncc1Cl gave an IC50 of 2.36 µM. With CN1C(=O)c2ccccc2Sc2ccc(NC(=O)NCCCc3ccccc3)cc21 the IC50 was 1.99 µM.
